According to patent US6894073B2, “Use of diterpene compound as a therapeutic agent of inflammation, immune disease or cancer” (Korea Research Institute of Bioscience and Biotechnology, priority 2000, dated 2005):

What was measured:
adjuvant arthritis model = experiment: Adjuvant arthritis model, paw volume; type: in vivo, Sprague-Dawley rat; details: for Inhibition rate (%) of arthritis: day 16-22, paw volume on 23rd day
Method: Finding the inhibitory effect of kaurane diterpene compounds on the production of NO, prostaglandin, and TNF, and on the activation of NF-κB in the murine macrophage cells stimulated by LPS, the present inventors investigated the pharmacological efficacy of kaurane diterpene compounds with a adjuvant arthritis model according to the method of Futaki et al. (General Pharmacology, 1993, 24, 105-110). To prepare animal model of the arthritis, 0.05 ml of 0.1% Mycobacterium butyricum suspended in Freud adjuvant (Sigma, USA) was injected intradermally to the left hind paw of the male Sprague-Dawley rat of 180 g weight. On the fifteenth day after injection, the volume of the right paw of the rats was measured using plethysmometer (Ugo-Basile, Italy), and only the rats having arthritis on the right leg were selected. Thereafter, the selected rats were divided into four groups, six rats per each group. Four kinds of kaurane diterpene compounds of the present invention were administered orally to each groups everyday from the sixteenth day to twenty-second day with doses of 3 mg/kg/day, 10 mg/kg/day, and 20 mg/kg/day in the form of the suspended solution with 0.1% methylcellulose. The inhibition rate of arthritis was calculated by comparing the volume of the paw with that of the control on the 23rd day.

prostaglandin E2 = experiment: Inhibition of prostaglandin E2 production in LPS-stimulated Raw 264.7 cells (enzyme immunometric assay); type: cell-based, murine; details: for PGE2: 1 μg/ml LPS, 16 hours
Method: To investigate whether kaurane diterpene compounds obtained in Example 1 can inhibit the production of prostaglandin, which induces inflammatory reaction, the present inventors measured the amount of prostaglandin E2 accumulated in the culture medium of LPS-stimulated murine macrophage cells, which were treated with four kaurane diterpene compounds, kamebanin, kamebacetal A, kamebakaurin, or exisanin A.
In detail, Raw 264.7 cells in DMEM medium were seeded to a 96-well plate at a cell density of 1×10^5 cells/well and were incubated for 18 hours. Cyclooxygenase-1, the constitutive rate-determining enzyme of the prostaglandin synthesis was inactivated by incubating for 3 hrs with 500 μM of aspirin and each well was washed two times with PBS (phosphate-buffered saline). To each well were added 1 μg/ml of LPS and 3 μg/ml, 0.3 μg/ml, and 0.03 μg/ml concentrations of kaurane diterpene compounds of the present invention and was incubated for 16 hours. After collecting supernatant by centrifugation, the amount of prostaglandin in the culture medium was quantified by enzyme immunometric assay.

Bcl-2 = Bcl-2 expression, Western blot, MCF-7 and HT-1080 cells; type: cell-based; details: 1, 5, 10 μg/ml, 20 ng/ml TNF-α 3 hours
Method: (§1) MCF-7 cells and HT-1080 cells were pretreated for 30 minutes with 1 μg/ml, 5 μg/ml, and 10 μg/ml concentrations of four kinds of kaurane diterpene compounds, respectively. After that, 20 ng/ml concentrations of TNF-α were treated for three hours to induce the expression of cIAP-1 and cIAP-2 proteins. Protein extract was prepared from cultured cells using buffer solution for protein extraction consisting of 50 mM Tris-HCL (pH 7.5), 1% Nonidet P40, 150 mM NaCl, 1 mM EDTA, 1 mM phenylmethyl sulfonyl fluoride, […]. 50 μg of protein extract of the control and compound-treated groups was applied to the SDS-polyacrylamide gel electrophoresis. After transferring the proteins into the polyvinylidene difluoride membrane, the membrane was blocked with 5% skim milk for three hours, and were reacted with antibodies against cIAP-1, cIAP-2, Bcl-2, and Bax proteins (Santa Cruz Biochemicals). The membrane was washed with PBS and was reacted with secondary antibody conjugated with horseradish peroxidase. After washing again with PBS, the protein was detected by ECL system (Amersham Pharmacia Biotec).

NF-κB = NF-κB activation, SEAP reporter in LPS-stimulated RAW-NF-AP cells; type: cell-based, murine; details: Mus musculus
Method: RAW-NF-AP cells, which can be used effectively to detect the NF-κB dependent expression of reporter gene, (Korean Patent Application No. 1999-0006025), were seeded to a 96-well plate at a cell density of 1×10^5 cell/well and were incubated for 3 hours at 37° C. in a 5% CO2 incubator. Thereafter, 1 μg/ml concentration of LPS and 0.03 μg/ml, 0.3 μg/ml, and 3 μg/ml concentrations of kaurane diterpene compounds of the present invention were added to each well and was incubated for 16 hours. After collecting supernatant by centrifugation, the amount of secreted alkaline phosphatase (SEAP) in the culture medium of which expression is regulated by the activation of NF-κB was quantified.

cIAP-1 = experiment: TNF-α-induced cIAP-1 protein expression, Western blot, MCF-7 and HT-1080 cells; type: cell-based; details: 1, 5, 10 μg/ml, 20 ng/ml TNF-α 3 hours
Method: as §1

Bf1-1/A1 mRNA = experiment: TNF-α-induced Bf1-1/A1 mRNA expression, Northern blot, MCF-7 and HT-1080 cells; type: cell-based; details: 1, 5, 10 μg/ml, 20 ng/ml TNF-α 3 hours
Method: MCF-7 cells (ATCC HTB 22, breast cancer cell line) and HT-1080 cells (ATCC CCL 121, fibroblastoma) were pretreated for 30 minutes with 1 μg/ml, 5 μg/ml, and 10 μg/ml concentrations of four kinds of kaurane diterpene compounds. Thereafter, 20 ng/ml concentrations of TNF-α were treated for three hours to induce the expression of Bf1-1/A1 mRNA. After isolating total RNA from the control and compound-treated cells, the expression of Bf1-1/A1 mRNA was measured by Northern blot analysis. To accomplish this, 20 μg of the total RNA was electrophoresed in the 1% agarose gel containing 2.2M concentrations of formaldehyde. After that, RNA was transferred to nylon membrane and fixed using ultraviolet. The nylon membrane was hybridized with ^32P-labeled probe, which was represented by SEQ. ID NO. 2 and specific to the cDNA of Bf1-1/A1 gene. After washing unbound probe with phosphate buffered saline (PBS) containing sodium dodecyl sulfate (SDS), the membrane was exposed to x-ray film.

cIAP-2 = experiment: TNF-α-induced cIAP-2 protein expression, Western blot, MCF-7 and HT-1080 cells; type: cell-based; details: 1, 5, 10 μg/ml, 20 ng/ml TNF-α 3 hours
Method: as §1

COX-2 protein = COX-2 protein expression, Western blot, LPS-stimulated Raw 264.7 cells; type: cell-based, murine; details: 0.1-3 μg/ml, LPS 1 μg/ml, 18 hours
Method: Raw 264.7 murine macrophage cells were treated simultaneously with 1 μg/ml concentrations of LPS and 0.1 μg/ml, 0.3 μg/ml, 1 μg/ml, and 3 μg/ml concentrations of kamebakaurin and were incubated for 18 hours at 37° C. in a 5% CO2 incubator. After preparing total cell lysates from cultured cells using buffer solution for protein extraction of the Example <7-2>, the expression pattern of proteins was assessed by Western blot analysis.

IC50 (prostaglandin E2; Mus musculus, RAW264.7, LPS-stimulated Raw 264.7 cells): 2.63 µM
IC50 (NF-κB; RAW-NF-AP cells, LPS): 1.11 µM
Compound: C=C1C(=O)[C@@]23[C@H](O)C[C@@H]4C(C)(C)CC[C@H](O)[C@@]4(CO)[C@@H]2CC[C@@H]1[C@H]3O [Kamebakaurin, kamebakaurin]
Inhibition rate (%) of arthritis (adjuvant arthritis model; 3 mg/kg/day oral): 35 ± 19%
Inhibition rate (%) of arthritis (adjuvant arthritis model; 10 mg/kg/day oral): 59 ± 11%
Inhibition rate (%) of arthritis (adjuvant arthritis model; 20 mg/kg/day oral): 71 ± 17%
Suppression of arthritis (in words) (adjuvant arthritis model; 3, 10, 20 mg/kg/day oral): suppressed dose-dependently
PGE2 (prostaglandin E2; 0.03 μg/ml compound): 10.7 ± 1.2 ng/mL
PGE2 (prostaglandin E2; 0.3 μg/ml compound): 9.2 ± 0.2 ng/mL
Inhibition rate (%) of prostaglandin E2 production (prostaglandin E2; 3 μg/ml compound): 95.1%
PGE2 (prostaglandin E2; 3 μg/ml compound): 1.8 ± 0.4 ng/mL
inhibition at 0.03 µg/mL (prostaglandin E2; Mus musculus, RAW264.7, 0.03 μg/ml compound, read-out: Inhibition rate (%) of prostaglandin E2 production): -7.1%
inhibition at 0.3 µg/mL (prostaglandin E2; Mus musculus, RAW264.7, 0.3 μg/ml compound, read-out: Inhibition rate (%) of prostaglandin E2 production): 9.7%
inhibition at 3 µg/mL (prostaglandin E2; Mus musculus, RAW264.7, 3 μg/ml compound, read-out: Inhibition rate (%) of prostaglandin E2 production): ~95%
Expression of Bcl-2 (Bcl-2): not inhibited
inhibition at 0.03 µg/mL (NF-κB; 0.03 μg/ml compound, 1 μg/ml LPS, 16 hours): 2.5%
inhibition at 0.3 µg/mL (NF-κB; 0.3 μg/ml compound, 1 μg/ml LPS, 16 hours): 33.1%
inhibition at 3 µg/mL (NF-κB; 3 μg/ml compound, 1 μg/ml LPS, 16 hours): 96.4%
Expression of cIAP-1 protein induced by TNF-α (cIAP-1): inhibited
Expression of Bf1-1/A1 mRNA induced by TNF-α (Bf1-1/A1 mRNA): inhibited
Expression of cIAP-2 protein induced by TNF-α (cIAP-2): inhibited
Expression of COX-2 protein (COX-2 protein): suppressed dose-dependently
